Source: patent US10888545B2, “Compositions and methods for treating estrogen-related medical disorders” (THE BOARD OF TRUSTEES OF THE UNIVERSITY OF ILLINOIS, priority 2012, dated 2021)
Read-outs that look alike come from different tables or passages of the source.

Experiments:
[1] = system: T47D:A18/neo cells; assay: DNA growth assay (2D culture), T47D:A18/neo; type: cell-based; conditions: only the higher concentration, 100 nM, E2 1 nM
[2] = target: T1, ERα (Homo sapiens, UniProt P03372); assay: ERα localization in T47D:A18/PKCα tumors by immunofluorescence; type: in vivo, mice; conditions: immunofluorescence staining of tumors
T1 sequence (P03372 1-595): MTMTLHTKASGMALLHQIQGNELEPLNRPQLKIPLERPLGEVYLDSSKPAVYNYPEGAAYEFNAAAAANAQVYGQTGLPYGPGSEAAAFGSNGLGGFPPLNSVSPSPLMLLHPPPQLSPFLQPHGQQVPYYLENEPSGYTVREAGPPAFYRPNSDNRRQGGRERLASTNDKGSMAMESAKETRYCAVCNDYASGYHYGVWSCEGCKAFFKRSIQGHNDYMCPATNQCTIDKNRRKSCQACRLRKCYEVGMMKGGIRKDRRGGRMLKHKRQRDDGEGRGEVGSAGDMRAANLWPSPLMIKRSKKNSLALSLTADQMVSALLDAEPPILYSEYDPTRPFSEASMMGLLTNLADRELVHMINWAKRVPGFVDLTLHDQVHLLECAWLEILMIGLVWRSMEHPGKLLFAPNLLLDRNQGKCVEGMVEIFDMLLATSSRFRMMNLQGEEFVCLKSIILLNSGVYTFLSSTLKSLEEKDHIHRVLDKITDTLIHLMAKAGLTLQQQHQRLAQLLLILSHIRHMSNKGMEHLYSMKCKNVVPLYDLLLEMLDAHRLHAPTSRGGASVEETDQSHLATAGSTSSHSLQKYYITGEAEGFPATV
Experimental: Tumor immunofluorescence confocal microscopy and co-localization analysis. Tumor sections (4 μm) were cut from paraffin blocks and prepared for IF staining by deparaffinization and rehydration. Antigen retrieval was performed by incubating slides in Tris-EDTA (pH=9.0) buffer at 90° C. and allowed to cool at room temperature for 45 min. Slides were blocked with antibody diluent (DAKO, Carpinteria, Calif. USA) for 20 min followed by primary antibody at 1:100 in antibody diluent for 1 h at room temperature. Slides were incubated with fluorescence-conjugated secondary antibodies at 1:100 in antibody diluent for 45 min at room temperature followed by DAPI (4′, 6-diamidino-2-phenylindole [1 μg/mL], DAKO, Carpinteria, Calif. USA) for 15 min. Slides were mounted with Vectashield mounting media (Vector Laboratories, Burlingame, Calif. USA). Confocal analysis was performed with a Zeiss LSM 510 microscope (Carl Zeiss, Incorporated, North America, Thornwood, N.Y. USA).
We have previously reported the possible involvement of an extranuclear ER in E2-induced tumor regression (11, 15).

[3] = system: T47D:A18/neo cells; assay: Colony formation assay in […], T47D:A18/neo; type: cell-based; conditions: 3D culture, 10 days; E2 1 nM, BTC 100 nM, TTC-352 100 nM
Experimental: (§1) Colony formation assay in […] Matrix. […] (Becton Dickinson, Franklin Lakes, N.J. USA) was thawed overnight at 4° C. Twelve-well plates were coated with 200 μL […]/well and incubated at 37° C. for 30 min. Cells were suspended at 5×103 in 400 μL of phenol red-free RPMI 1640 and spread onto pre-gelled […] and allowed to incubate at 37° C. for 30 minutes, and 360 μL of treatment media containing 40 μL […] was then added. Plates were incubated at 37° C. for 10 days; medium containing 10% […] was replaced to the top of the […] every 3 days. Colonies were stained with crystal violet on day 10 and each well was counted by light microscopy (20×).
(§2) These concentrations were selected on the basis of proliferative effects in 2D cultures.

[4] = system: T47D:A18/neo tumors; assay: T47D:A18/neo xenograft tumor growth; type: in vivo, mice; conditions: for stimulation of growth of T47D:A18/neo xenograft tumors in vivo: 1.5 mg/day p.o., seven weeks; for T47D:A18/neo average tumor size: following seven weeks of treatment, 1.5 mg/day p.o. (E2: capsule)
[5] = system: uteri; assay: Uterine weights of ovariectomized athymic mice (7 weeks); type: in vivo; conditions: following 7 weeks of treatment; 1.5 mg/day p.o. (E2: capsule)
[6] = system: ERα transcriptional activity in T47D:A18/neo cells; type: cell-based
[7] = system: T47D:A18/PKCα cells; assay: DNA growth assay (2D culture), T47D:A18/PKCα; type: cell-based; conditions: E2-free media, 1 nM, 10 nM, 100 nM
[8] = Body weights of mice bearing T47D:A18/neo tumors; type: in vivo; conditions: seven week treatment, 1.5 mg/day p.o.
Source text: B) Body weights of treated mice from (A). C) Uterine weights from mice in (A). Weights are reported as uterine weight (mg)/body weight (g). *, P<0.05 versus control. Graphs show mean SEM.
Since BTC and TTC-352 treatment result in growth of T47D:A18/neo cells in 2D culture (FIGS. 1C and 1E) and in 3D […] (FIG. 2A), we next sought to determine if BTC and TTC-352 could sustain the growth of T47D:A18/neo tumors in vivo. […] Additionally, no significant weight loss was observed over the seven week treatment period (FIG. 5B).

[9] = system: Ishikawa human endometrial cancer cells; conditions: references 16-19; cited from earlier work
[10] = system: ERα transcriptional activity in T47D:A18/PKCα cells; assay: ERE-luciferase reporter assay, T47D:A18/PKCα; type: cell-based; conditions: for ER agonist character in T47D:A18/PKCα cells in vitro: ERE-luciferase, 1 nM, 10 nM, 100 nM
[11] = Plasma levels of BTC after oral administration to mice; type: in vivo; conditions: single oral dose 10 mg/kg, ovariectomized athymic nude mice
[12] = system: T47D:A18/PKCα cells; assay: Colony formation assay in […], T47D:A18/PKCα; type: cell-based; conditions: 3D culture, 10 days; E2 1 nM, BTC 100 nM, TTC-352 100 nM
Experimental: as §1, §2

[13] = system: MCF-7 human mammary cancer cells; conditions: references 16-19; cited from earlier work
[14] = system: T47D:A18/PKCα tumors; assay: T47D:A18/PKCα xenograft tumor regression; type: in vivo, mice; conditions: for persistence of T47D:A18/PKCα tumor regression after end of treatment: after two weeks of 1.5 mg/day p.o.; for T47D:A18/PKCα mean tumor size / T47D:A18/PKCα tumor regression: at two weeks; for T47D:A18/PKCα mean tumor size: 1.5 mg/day p.o.; for T47D:A18/PKCα tumor regression: 1.5 mg/day p.o. (E2: capsule), start ~0.5 cm^2 = 100%
[15] = juvenile female rats, after 3 days of drug administration; cited from earlier work
[16] = system: T47D-Tam1 xenograft tumors; assay: T47D-Tam1 TAM-resistant xenograft tumors (Example 11); type: in vivo, mice; conditions: TTC-352 1.5 mg/day p.o. daily for seven weeks; E2 capsule
[17] = system: T47D/PKCα xenograft tumors; assay: T47D/PKCα TAM-resistant xenograft tumors (Example 11); type: in vivo, mice; conditions: TTC-352 or raloxifene 1.5 mg/day p.o., seven weeks, also after withdrawal; E2 capsule
[18] = silastic capsules (1.0 cm) implanted subcutaneously; reference 14; cited from earlier work
[19] = system: T47D:A18/PKCα cells; conditions: reference 11; cited from earlier work
[20] = system: uteri; conditions: references 29-32, cited from earlier work
[21] = humans; cited from earlier work
[22] = system: uteri; assay: Uterine weights of mice (Example 11); type: in vivo; conditions: TTC-352 1.5 mg/day

Structure (SMILES) | effect on the proliferation of T47D:A18/neo cells relative to E2 [1] | ERα localization in regressing T47D:A18/PKCα tumors [2] | T47D:A18/neo colony growth in MATRIGEL [3] | stimulation of growth of T47D:A18/neo xenograft tumors in vivo [4] | T47D:A18/neo average tumor size [4] [cm^2] | uterine weights of ovariectomized mice [5] | proliferation of T47D:A18/PKCα cells (DNA content) [7] | body weight of treated mice [8] | estrogen agonist/antagonist character in Ishikawa cells [9] | potency in Ishikawa cells relative to E2 [9] | ER agonist character in T47D:A18/PKCα cells in vitro [10] | T47D:A18/PKCα colony formation in MATRIGEL [12] | estrogen agonist/antagonist character in MCF-7 cells [13] | persistence of T47D:A18/PKCα tumor regression after end of treatment [14] | T47D:A18/PKCα mean tumor size [14] [cm^2] | T47D:A18/PKCα tumor regression [14] [%] | T47D-Tam1 xenograft tumor response [16] | T47D/PKCα xenograft tumor response [17] | other results
Oc1ccc(-c2cc3ccc(O)cc3s2)cc1 [BTC, 2-(4-hydroxyphenyl)benzo[b]thiophen-6-ol] | comparable to E2(1 nM) treatment | exit of ERα from the nucleus | stimulated | neither compound was able to significantly stimulate the growth | ~0.04 | no significant increase in the uterine weights | proliferated in the presence of BTC and TTC-352 at all concentrations tested | no effect | nanomolar estrogen agonists | three orders of magnitude below that of E2 | act as ER agonists | inhibited | estrogen agonist | sustained for at least four weeks post-treatment | ~0.07 | ~88 | – | – | ERα transcriptional activity (ERE-luciferase) in T47D:A18/neo cells [6]: increase in ERα transcriptional activity; ERE-luciferase induction in T47D:A18/PKCα cells compared with T47D:A18/neo cells ([10]; 100 nM and 10 nM): more sensitive than T47D:A18/neo cells; concentration at 6 h ([11]; female, mouse, plasma, 6 h): 10 ng/mL; peak plasma concentration ([11]; at 30 min): 40 ng/mL
Oc1ccc(-c2sc3cc(O)ccc3c2Oc2ccc(OCCN3CCCCC3)cc2)cc1 [DMA, Desmethylarzoxifene] | – | – | – | – | – | – | – | – | – | – | – | – | – | – | – | – | – | – | remaining drug in plasma [15]: not observed above detection limits
C[C@]12CC[C@@H]3c4ccc(O)cc4CC[C@H]3[C@@H]1CC[C@@H]2O [E2, 17β-estradiol, reference compound] | – | – | stimulated | – | ~0.35 | significant proliferative actions | – | – | – | – | – | inhibited | – | – | – | ~98 | growth is inhibited by E2 treatment | growth is inhibited by E2 treatment | mean serum E2 level [18]: 379.5 pg/mL
O=C(c1ccc(OCCN2CCCCC2)cc1)c1c(-c2ccc(O)cc2)sc2cc(O)ccc12 [RAL, raloxifene] | – | – | – | – | – | – | – | – | estrogen antagonist | – | – | – | estrogen antagonist | failure of RAL-induced regression to persist after drug withdrawal | – | ~50 | – | caused tumor regression, however, drug withdrawal led to relapse | T47D:A18/PKCα MATRIGEL colony formation (previously reported) [19]: unable to inhibit MATRIGEL colony formation; luminal epithelial cell thickness in ovariectomized rats ([20]; doses up to 10 mg/kg/day): did not increase luminal epithelial cell thickness; uterine weight in ovariectomized rats ([20]; minimally effective dose): did not increase uterine weight; oral clearance [21]: 441 kg⁻¹ h⁻¹
CC/C(=C(\c1ccccc1)c1ccc(OCCN(C)C)cc1)c1ccccc1 [TAM, tamoxifen] | – | – | – | – | – | significant proliferative actions | – | – | – | – | – | – | – | – | – | – | – | TAM-resistant | –
Oc1ccc(Oc2sc3cc(O)ccc3c2-c2ccc(F)cc2)cc1 [TTC-352, 3-(4-fluorophenyl)-2-(4-hydroxyphenoxy)benzo[b]thiophen-6-ol] | comparable to E2(1 nM) treatment | exit of ERα from the nucleus | stimulated | neither compound was able to significantly stimulate the growth | ~0.1 | no significant increase in the uterine weights | proliferated in the presence of BTC and TTC-352 at all concentrations tested | no effect | nanomolar estrogen agonists | three orders of magnitude below that of E2 | act as ER agonists | inhibited | estrogen agonist | sustained for at least four weeks post-treatment | ~0.18 | ~70 | tumor regression comparable to that of E2-treated tumors | tumor regression comparable to that of E2-treated tumors | uterine weight in mice [22]: did not increase uterine weight; ERα transcriptional activity (ERE-luciferase) in T47D:A18/neo cells ([6]; 24 hours): increase in ERα transcriptional activity
